According to PubChem BioAssay (NCI):
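Test compounds were applied to cells in 96-well plates for 48 hours at 5 doses. TGI marks complete inhibition of growth.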

Experiments:
Assay in all cases: DTP human tumour cell line panel, 48 h
DLD-1 colon = system: DLD-1 colon
DMS 273 small cell lung = system: DMS 273 small cell lung
HOP-18 NSCLC = system: HOP-18 NSCLC
LXFL 529 NSCLC = system: LXFL 529 NSCLC
M19-MEL melanoma = system: M19-MEL melanoma
SNB-78 CNS = system: SNB-78 CNS
DMS 114 small cell lung = system: DMS 114 small cell lung
RXF-631 renal = system: RXF-631 renal
XF 498 CNS = system: XF 498 CNS

Compound | TGI (DLD-1 colon) [µM] | TGI (DMS 273 small cell lung) [µM] | TGI (HOP-18 NSCLC) [µM] | TGI (LXFL 529 NSCLC) [µM] | TGI (M19-MEL melanoma) [µM] | TGI (SNB-78 CNS) [µM] | TGI (DMS 114 small cell lung) [µM] | TGI (RXF-631 renal) [µM] | TGI (XF 498 CNS) [µM]
CCc1cccc(CC)c1NC(=O)C1=C(C)NC(C)=C(C(=O)Nc2c(CC)cccc2CC)C1c1ccc2c(c1)OCO2 | 50.3 | 26 | 61.2 | 29.3 | 30.9 | 52.3 |  |  | 
CSc1nc2c(c(O)c(C)c(=O)n2C2OCC(OC(C)=O)C(OC(C)=O)C2OC(C)=O)c(=O)n1C (stereo not given) | > 100 |  |  | > 100 | > 100 | > 100 | > 100 |  | 
CCN(CC)Cc1cc(Nc2c3ccccc3nc3c4ccccc4n(C)c23)ccc1O | 21 | 17.9 | 27.1 | 14.7 | 19 | 41.2 | 19.5 | 13.8 | 17.1
Cc1nc2c(n1CCN(C)C)C(=O)c1ccccc1C2=O | 26.9 | 28.8 |  | 37.3 | 4.3 | 78.9 |  |  | 33.1
CC1C=C[C@H](Sc2ccccc2)CC[C@@]1(C)O (stereo not given in full) | > 100 |  |  | > 100 | > 100 | > 100 | > 100 |  | 
Cn1nc2ccc3nccc(N(CCO)CCO)c3c2n1 | > 100 | > 100 | > 100 | > 100 | > 100 | > 100 |  |  | > 100
CCC1(N=[N+]=[N-])C(=O)c2ccccc2N(c2ccccc2)C1=O (stereo not given) | > 100 | > 100 | > 100 | > 100 | > 100 | > 100 | > 100 |  | > 100
CC(=O)NC(CCCNC(=O)NCCCl)C(=O)NCc1ccccc1 (stereo not given) |  | > 100 | > 100 | > 100 | > 100 |  | > 100 | > 100 | 
COC(=O)CCc1cccnc1/C=N/O | > 100 | > 100 | > 100 | > 100 | > 100 | > 100 | > 100 | > 100 | 
COc1cc(C)c(C)c(OC(=O)c2c(C)c(C)c(OC)c(C)c2OC)c1C | > 100 | 20.6 | > 100 | > 100 | 46.6 | > 100 | 15.5 | 69.1 | 40
CCCCCCCCCCCCn1[nH]c(C)c(C(=S)SCCCCCCCC)c1=O | > 94.6 | > 100 | > 100 | > 100 | 67.7 | > 100 | > 79.4 | > 100 | > 100
COc1ccc(N2C(=O)[C@@H]3[C@H](C2=O)c2[nH]c4ccccc4c2C2CCC(C(C)(C)C)C[C@@H]23)cc1 (stereo not given in full) | > 100 | > 77.9 |  | > 100 | > 100 | 59.5 |  |  | > 100
CCCCNC(=O)CCN(C(=O)O)S(=O)(=O)c1ccc(NC(=O)c2ccccc2)cc1 | > 100 | 86.5 | > 100 | > 100 | > 100 | > 100 | > 100 |  | > 100
CC(C)(Oc1ccc2c(=O)cc(-c3ccccc3)oc2c1)C(=O)Nc1c(Cl)cccc1Cl |  | > 100 | > 100 | > 100 | > 100 | > 100 | > 100 |  | 72.2
Brc1ccc2c(c1)C1C(CO2)C(c2ccccc2)=NN1c1ccccc1 (stereo not given) | > 100 | > 100 | > 100 | > 100 | > 100 | > 100 | > 100 |  | > 100
COC(=O)c1ccccc1NC(=O)C(=O)CC(=O)CC(c1ccccc1)c1c(O)c2ccccc2oc1=O (stereo not given) | > 100 |  |  |  | > 100 |  | > 100 | > 100 | 
C/C(CC(=O)NC1=CC=C(NC(=O)C/C(C)=N\Nc2ccccc2)CC1)=N/Nc1ccccc1 | > 100 | > 100 | > 100 | > 100 | > 100 | > 100 | > 100 | > 100 | > 100
